Legend:
[1] = target: T1, Bifunctional dihydrofolate reductase-thymidylate synthase (Toxoplasma gondii, UniProt Q07422)
T1 sequence (Q07422 whole entry): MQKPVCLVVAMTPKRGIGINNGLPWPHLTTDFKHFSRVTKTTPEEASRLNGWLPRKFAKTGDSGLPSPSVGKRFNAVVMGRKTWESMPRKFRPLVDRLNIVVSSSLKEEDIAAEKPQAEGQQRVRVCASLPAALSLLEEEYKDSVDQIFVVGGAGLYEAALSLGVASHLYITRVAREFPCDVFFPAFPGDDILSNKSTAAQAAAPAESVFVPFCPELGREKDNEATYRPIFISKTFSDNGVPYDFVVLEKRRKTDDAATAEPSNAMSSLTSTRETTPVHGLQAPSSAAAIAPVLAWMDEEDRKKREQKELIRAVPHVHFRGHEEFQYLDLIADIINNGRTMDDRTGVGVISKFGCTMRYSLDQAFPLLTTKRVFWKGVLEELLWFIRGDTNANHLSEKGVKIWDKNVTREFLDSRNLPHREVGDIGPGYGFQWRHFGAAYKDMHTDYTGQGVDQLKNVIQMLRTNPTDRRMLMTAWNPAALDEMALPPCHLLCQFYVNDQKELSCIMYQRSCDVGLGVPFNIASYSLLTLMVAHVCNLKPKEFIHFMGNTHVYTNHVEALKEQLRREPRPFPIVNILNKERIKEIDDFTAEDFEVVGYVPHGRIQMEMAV
Description: Inhibitory activity against Toxoplasma gondii dihydrofolate reductase

Toxoplasma gondii = experiment: Inhibition of Toxoplasma gondii cell growth; assay type: functional, organism-based
Dihydrofolate reductase [2] = target: T2, Dihydrofolate reductase (Rattus norvegicus, UniProt Q920D2)
T2 sequence (Q920D2 whole entry): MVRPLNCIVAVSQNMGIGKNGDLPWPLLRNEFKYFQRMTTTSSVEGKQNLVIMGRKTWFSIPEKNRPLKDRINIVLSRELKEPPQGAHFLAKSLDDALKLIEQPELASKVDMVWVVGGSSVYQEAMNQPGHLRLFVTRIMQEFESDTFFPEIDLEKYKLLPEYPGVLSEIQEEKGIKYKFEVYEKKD
Description: Inhibitory activity against rat liver dihydrofolate reductase

Dihydrofolate reductase [3] = target: T3, Dihydrofolate reductase (Pneumocystis carinii, UniProt P16184)
T3 sequence (P16184 whole entry): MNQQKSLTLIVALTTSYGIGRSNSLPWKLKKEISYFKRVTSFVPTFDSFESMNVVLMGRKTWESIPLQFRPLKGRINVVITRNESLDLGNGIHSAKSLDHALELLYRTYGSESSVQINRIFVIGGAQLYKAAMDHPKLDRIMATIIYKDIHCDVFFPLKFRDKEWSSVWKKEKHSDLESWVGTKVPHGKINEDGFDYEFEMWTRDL
Description: Inhibitory activity against Pneumocystis carinii dihydrofolate reductase

Row | IC50 (Dihydrofolate reductase [2]) [nM] | IC50 (Dihydrofolate reductase [3]) [nM] | Compound | IC50 [1] [nM] | IC50 (Toxoplasma gondii) [nM]
1 | 300 | 1500 | Nc1nc(N)c2nc(CNc3ccc(Cl)cc3)cnc2n1 | 590 | 700
2 | 1260 |  | Nc1nc(N)c2nc(CNc3cccc4ccccc34)cnc2n1 | 76 | 250
3 | 31 | 49 | COc1cc(NCc2cnc3nc(N)nc(N)c3c2C)cc(OC)c1 | 3.5 | 60
4 | 10 | 11 | COc1ccc(OC)c(NCc2cnc3nc(N)nc(N)c3c2C)c1 | 14 | 200
5 | 150 | 38 | COc1ccc(C)c(NCc2cnc3nc(N)nc(N)c3c2C)c1 | 23 | 30
6 | 17 | 20 | COc1cc(NCc2cnc3nc(N)nc(N)c3c2C)cc(C(F)(F)F)c1 | 18 | 200
7 | 20 | 44 | COc1ccc(C(F)(F)F)cc1NCc1cnc2nc(N)nc(N)c2c1C | 22 | 20
8 | 230 | 350 | COc1ccc(N(C)Cc2cnc3nc(N)nc(N)c3c2C)c(OC)c1 | 53 | 300
9 | 61 | 91 | COc1ccc(NCc2cnc3nc(N)nc(N)c3c2C)c(OC)c1 | 10 | 200
10 | 29 | 170 | COc1ccc(NCc2cnc3nc(N)nc(N)c3c2C)c(C)c1 | 7.2 | 600
11 | 430 | 440 | Cc1c(CSc2ccccc2)cnc2nc(N)nc(N)c12 | 34 | 200
12 |  |  | COc1ccc(OC)c(Cc2cnc3nc(N)nc(N)c3c2C)c1 [PIRITREXIM] |  | 20
13 | 36300 | 58200 | COc1ccc(SCc2cnc3nc(N)nc(N)c3n2)cc1OC | 23200 | 5000
14 |  | 9500 | Nc1nc(N)c2nc(CSc3ccccc3)cnc2n1 |  | 10000
15 |  |  | CCc1nc(N)nc(N)c1-c1ccc(Cl)cc1 [PYRIMETHAMINE] |  | 400
16 | 1900 | 7000 | COc1cc(NCc2cnc3nc(N)nc(N)c3n2)cc(OC)c1OC | 1000 | 11000
17 | 5.4 |  | COc1cc(NCc2cnc3nc(N)nc(N)c3c2C)cc(OC)c1OC |  | 1000
18 |  | 560 | COc1ccc(SCc2cnc3nc(N)nc(N)c3c2C)cc1 |  | 300
19 | 530 | 167 | CCOc1ccc(OCC)c(N(C)Cc2cnc3nc(N)nc(N)c3c2C)c1 | 29 | 60
20 | 5700 | 15800 | COc1cccc(C)c1NCc1cnc2nc(N)nc(N)c2n1 | 1850 | 5000
21 | 500 | 530 | Cc1ccc(SCc2cnc3nc(N)nc(N)c3c2C)cc1 | 57 | 300
22 | 10200 | 17200 | COc1ccc(SCc2cnc3nc(N)nc(N)c3n2)cc1 | 14000 | 3000
23 | 135 | 64 | Cc1c(CCc2cccc3ccccc23)cnc2nc(N)nc(N)c12 | 26 | 100
24 | 8200 | 4200 | Nc1nc(N)c2nc(CSc3cccc4ccccc34)cnc2n1 | 7000 | 3000
25 | 330 | 170 | Cc1cccc(SCc2cnc3nc(N)nc(N)c3c2C)c1 | 65 | 200

Row | IC50 (Dihydrofolate reductase [2]) [nM] | IC50 (Dihydrofolate reductase [3]) [nM] | Compound | IC50 [1] [nM] | IC50 (Toxoplasma gondii) [nM]
26 | 21000 | 21000 | COc1ccc(C(F)(F)F)cc1NCc1cnc2nc(N)nc(N)c2n1 | 10600 | 2000
27 | 370 | 125 | CCOc1ccc(OCC)c(NCc2cnc3nc(N)nc(N)c3c2C)c1 | 22 | 60
28 | 13 | 50 | COc1cc(OC)cc(N(C)Cc2cnc3nc(N)nc(N)c3c2C)c1 | 4 | 10
29 | 230 | 260 | Nc1nc(N)c2cc(CNc3cccc4ccccc34)cnc2n1 | 150 | 800
30 | 26000 |  | Cc1ccc(SCc2cnc3nc(N)nc(N)c3n2)cc1 | 15000 | 5000
31 | 72 | 110 | Cc1c(CNc2ccc(Cl)cc2)cnc2nc(N)nc(N)c12 | 32 | 150
32 | 320 | 1000 | COc1cccc(C)c1NCc1cnc2nc(N)nc(N)c2c1C | 100 | 300
33 | 14300 | 42100 | Nc1nc(N)c2nc(CSc3ccc(Cl)cc3)cnc2n1 | 16800 | > 10000
34 | 22900 | 6200 | COc1ccc(OC)c(NCc2cnc3nc(N)nc(N)c3n2)c1 | 6900 | 5000
35 | > 3000 | > 3000 | COc1ccc(C)c(NCc2cnc3nc(N)nc(N)c3n2)c1 | 440 | 1000
36 | 770 | 340 | COc1ccc(OC)c(CCc2cnc3nc(N)nc(N)c3c2C)c1 | 7.9 | 100
37 | 810 |  | COc1cc(NCc2cnc3nc(N)nc(N)c3c2)cc(OC)c1OC | 130 | 15000
38 | 23 | 330 | Cc1cc(Cl)ccc1NCc1ccc2nc(N)nc(N)c2c1 | 33 | 200
39 | 1900 | 680 | COc1cc(NCc2cnc3nc(N)nc(N)c3n2)cc(C(F)(F)F)c1 | 890 | 1000
40 | 60000 |  | Nc1nc(N)c2nc(CCc3cccc4ccccc34)cnc2n1 | 820 | 1000
41 | 7700 | 9900 | COc1cccc(SCc2cnc3nc(N)nc(N)c3n2)c1 | 1600 | 5000
42 | 160 | 68 | COc1ccc(C)cc1NCc1cnc2nc(N)nc(N)c2c1C | 15 | 50
43 | 26600 | 42200 | Nc1nc(N)c2nc(CSc3cccc(Cl)c3)cnc2n1 | 5700 | > 10000
44 | 370 | 360 | Cc1c(CSc2ccc(Cl)cc2)cnc2nc(N)nc(N)c12 | 90 | 300
45 | 460 | 700 | COc1ccc(OC)c(N(C)Cc2cnc3nc(N)nc(N)c3c2C)c1 | 28 | 200
46 | 55 | 210 | Nc1nc(N)c2cc(CNc3cccc4ccccc34)ccc2n1 | 27 | 60
47 | 140 | 150 | Cc1c(CN(C)c2cccc3c2CCCC3)cnc2nc(N)nc(N)c12 | 16 | 20
48 | 120 | 30 | Cc1ccc(C)c(NCc2cnc3nc(N)nc(N)c3c2C)c1 | 16 | 10
49 | 5.2 | 29 | COc1ccc(N(C)Cc2cnc3nc(N)nc(N)c3c2C)cc1OC | 2.9 | 150
50 | 880 | 960 | COc1cc(NCc2cnc3nc(N)nc(N)c3n2)cc(OC)c1 | 110 | 1000
